Positions count from the first letter of the chain named. Names and notes keep the numbering of the source. Where two headings read alike, the source gives them in different places. One block for each molecule: values may come before it. *1 amine or outer side, *2 acyl side, *3 side chain or, on linkers, in order; H or OH if unused. Where a SMILES comes first, the peptide text is derived from it. Bridges are numbered along the chain shown (N, C = ends). Roman numbers before positions name the chains, in order. [ ]: non-standard residue; d: D form. Actinocin(9to1) = Cc1c2oc3c(C)ccc(C(=O)[*:1])c3nc-2c(C(=O)[*:2])c(N)c1=O; NMeV = CN[C@H](C(=O)O)C(C)C; Sar = CNCC(=O)O
Key:
DDR2-His = target: T1, DDR2-His (Homo sapiens, UniProt Q16832); experiment: Solid-phase binding assay of DDR2-His; conditions: 25 nM DDR2-His, collagen peptide
T1 sequence (Q16832 22-398): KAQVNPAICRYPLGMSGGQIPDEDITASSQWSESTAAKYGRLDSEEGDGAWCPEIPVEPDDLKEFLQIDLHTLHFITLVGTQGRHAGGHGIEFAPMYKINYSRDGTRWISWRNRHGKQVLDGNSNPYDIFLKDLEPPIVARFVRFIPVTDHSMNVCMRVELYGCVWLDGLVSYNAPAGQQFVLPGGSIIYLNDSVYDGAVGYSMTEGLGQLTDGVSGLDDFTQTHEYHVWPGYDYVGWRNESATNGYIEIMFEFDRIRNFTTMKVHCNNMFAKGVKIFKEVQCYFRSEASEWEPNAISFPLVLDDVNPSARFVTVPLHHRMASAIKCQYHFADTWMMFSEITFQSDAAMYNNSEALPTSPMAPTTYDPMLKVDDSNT

DDR2 = conditions: cited from earlier work
[1] = cited from earlier work
4T1 GFP/luc cells = experiment: Lung colonization after tail vein injection of 4T1 GFP/luc cells in BALB/cJ mice; type: in vivo, mouse; conditions: treated daily, 7 d
[2] = target: the molecule itself
cross-linking = target: the molecule itself; experiment: cross-linking
SEC = target: the molecule itself; experiment: SEC

DDR2 inhibition in ECD solid-phase binding assay (in words) (DDR2-His): inhibits DDR2
Molecule: Cc1c2oc3c(C)ccc(C(=O)N[C@@H]4C(=O)N[C@H](C(C)C)C(=O)N5CCC[C@H]5C(=O)N(C)CC(=O)N(C)[C@@H](C(C)C)C(=O)O[C@@H]4C)c3nc-2c(C(=O)N[C@@H]2C(=O)N[C@H](C(C)C)C(=O)N3CCC[C@H]3C(=O)N(C)CC(=O)N(C)[C@@H](C(C)C)C(=O)O[C@@H]2C)c(N)c1=O [actinomycin D] (I: T[dV]P[Sar][NMeV] / II: T[dV]P[Sar][NMeV]; ester I:1-I:C, II:1-II:C; linker I:N-II:N via Actinocin(9to1))
DDR2 inhibition in previous in vitro screen (DDR2): weak inhibitor
toxicity profile [1]: high toxicity profile

DDR2 inhibition in ECD solid-phase binding assay (in words) (DDR2-His): inactive
Molecule: Nc1c(C(=O)O)c2nc3c(C(=O)O)cccc3oc-2cc1=O [cinnabarinic acid]
lung colonization by 4T1 GFP/luc cells (4T1 GFP/luc cells): no effect

B1: DDR2 F96A/T98A expressed as a full-length receptor in HEK293 cells (receptor, UniProt Q16832 22-855, looked up)
chain: KAQVNPAICRYPLGMSGGQIPDEDITASSQWSESTAAKYGRLDSEEGDGAWCPEIPVEPDDLKEFLQIDLHTLHAIALVGTQGRHAGGHGIEFAPMYKINYSRDGTRWISWRNRHGKQVLDGNSNPYDIFLKDLEPPIVARFVRFIPVTDHSMNVCMRVELYGCVWLDGLVSYNAPAGQQFVLPGGSIIYLNDSVYDGAVGYSMTEGLGQLTDGVSGLDDFTQTHEYHVWPGYDYVGWRNESATNGYIEIMFEFDRIRNFTTMKVHCNNMFAKGVKIFKEVQCYFRSEASEWEPNAISFPLVLDDVNPSARFVTVPLHHRMASAIKCQYHFADTWMMFSEITFQSDAAMYNNSEALPTSPMAPTTYDPMLKVDDSNTRILIGCLVAIIFILLAIIVIILWRQFWQKMLEKASRRMLDDEMTVSLSLPSDSSMFNNNRSSSPSEQGSNSTYDRIFPLRPDYQEPSRLIRKLPEFAPGEEESGCSGVVKPVQPSGPEGVPHYAEADIVNLQGVTGGNTYSVPAVTMDLLSGKDVAVEEFPRKLLTFKEKLGEGQFGEVHLCEVEGMEKFKDKDFALDVSANQPVLVAVKMLRADANKNARNDFLKEIKIMSRLKDPNIIHLLAVCITDDPLCMITEYMENGDLNQFLSRHEPPNSSSSDVRTVSYTNLKFMATQIASGMKYLSSLNFVHRDLATRNCLVGKNYTIKIADFGMSRNLYSGDYYRIQGRAVLPIRWMSWESILLGKFTTASDVWAFGVTLWETFTFCQEQPYSQLSDEQVIENTGEFFRDQGRQTYLPQPAICPDSVYKLMLSCWRRDTKNRPSFQEIHLLLLQQGDE
stoichiometry N [2]: 2

B2: full-length DDR2 expressed in HEK293 cells (receptor, UniProt Q16832 22-855, looked up)
chain: B1 chain with A75F, A77T
stoichiometry N (cross-linking): 2

B3: DDR2 F96A/T98A double mutant ECD, His-tagged (domain or fragment, UniProt Q16832 22-399, looked up)
chain: KAQVNPAICRYPLGMSGGQIPDEDITASSQWSESTAAKYGRLDSEEGDGAWCPEIPVEPDDLKEFLQIDLHTLHAIALVGTQGRHAGGHGIEFAPMYKINYSRDGTRWISWRNRHGKQVLDGNSNPYDIFLKDLEPPIVARFVRFIPVTDHSMNVCMRVELYGCVWLDGLVSYNAPAGQQFVLPGGSIIYLNDSVYDGAVGYSMTEGLGQLTDGVSGLDDFTQTHEYHVWPGYDYVGWRNESATNGYIEIMFEFDRIRNFTTMKVHCNNMFAKGVKIFKEVQCYFRSEASEWEPNAISFPLVLDDVNPSARFVTVPLHHRMASAIKCQYHFADTWMMFSEITFQSDAAMYNNSEALPTSPMAPTTYDPMLKVDDSNTR
stoichiometry N (SEC): 2
